Experimental findings from ChEMBL document CHEMBL1201862, “PubChem BioAssay data set” (2004) are described below.

For experiment [1], the target named is Fibroblast growth factor receptor 3 (Homo sapiens, UniProt P22607). It counts as functional.
For experiment [2], the target named is Serine/threonine-protein kinase 3 (Homo sapiens, UniProt Q13188). The format is functional.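 Note: measured as one member of a kinome-wide kinase panel.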
The target of experiment [3] is Serine/threonine-protein kinase NLK (Homo sapiens, UniProt Q9UBE8). Briefly: Navigating the Kinome. Panel member name: NLK. The format is functional.
The target in experiment [4] is 5'-AMP-activated protein kinase catalytic subunit alpha-1 (Homo sapiens, UniProt Q13131). The format is functional.
For experiment [5], the target named is Mitogen-activated protein kinase 8 (Homo sapiens, UniProt P45983). The format is functional.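 Note: value comes from one member of a kinome-wide kinase profiling panel.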
For experiment [6], the target named is Dual specificity protein kinase CLK4 (Homo sapiens, UniProt Q9HAZ1). It counts as functional.
For experiment [7], the target named is Glycogen synthase kinase-3 beta (Homo sapiens, UniProt P49841). It counts as functional.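 Note: value comes from a broad kinome profiling panel, with GSK3B as the panel member.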
The target of experiment [8] is Macrophage colony-stimulating factor 1 receptor (Homo sapiens, UniProt P07333). It counts as functional.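 Note: value comes from the Navigating the Kinome screening panel, CSF1R member.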
Experiment [9] addresses Eukaryotic elongation factor 2 kinase (Homo sapiens, UniProt O00418). It counts as functional.
For experiment [10], the target named is Homeodomain-interacting protein kinase 2 (Homo sapiens, UniProt Q9H2X6). The format is functional.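 Note: measured within a kinome-wide kinase profiling panel, HIPK2 being one panel member.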
The target in experiment [11] is Glycogen synthase kinase-3 alpha (Homo sapiens, UniProt P49840). It counts as functional.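 Note: GSK3A result taken from a broad kinome-wide kinase panel.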
In experiment [12] the target is Receptor tyrosine-protein kinase erbB-4 (Homo sapiens, UniProt Q15303). It counts as functional.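 Note: ERBB4 member of a kinome-wide kinase profiling panel.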
Experiment [13] deals with Vascular endothelial growth factor receptor 1 (Homo sapiens, UniProt P17948). The format is functional.
Experiment [14] has as its target Dual specificity tyrosine-phosphorylation-regulated kinase 1A (Homo sapiens, UniProt Q13627). It counts as functional.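 Note: measured against DYRK1A as one member of a broad kinome profiling panel.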
Experiment [15] deals with Serine/threonine-protein kinase PAK 1 (Homo sapiens, UniProt Q13153). The format is functional.
A further experiment addresses Misshapen-like kinase 1 (Homo sapiens, UniProt Q8N4C8). The format is functional.
In experiment [16] the target is Serine/threonine-protein kinase Nek2 (Homo sapiens, UniProt P51955). The format is functional.
In experiment [17] the target is DNA dC->dU-editing enzyme APOBEC-3A (Homo sapiens, UniProt P31941). The experiment can be described thus: APOBEC3A DNA deaminase inhibitors, dose response, biochemical (AID 504722). The format is functional.
Experiment [18] can be described thus: Counterscreen for activators of the function of SWI/SNF related, matrix associated, actin dependent regulator of chromatin, subfamily a, member 2 (SMARCA2, BRM): Luminescence-based cell-based high throughput dose response assay to identify non-selective compounds using the VP16 reporter assay. The format is functional. On the technique in general: The purpose of a counterscreen is to sort out artefacts and off-target activity.

A further experiment has as its target Procathepsin L (Homo sapiens, UniProt P07711).
The target of a further experiment is Cytochrome P450 2C19 (Homo sapiens, UniProt P33261). Briefly: Cytochrome panel assay with activity outcomes. Panel member name: p450-cyp2c19 Compounds with AC50 equal or less than 10 uM are considered active. The format is functional. The conditions noted are these: read-out: AC50.
In experiment [19] the target is DNA (cytosine-5)-methyltransferase 1 (Homo sapiens, UniProt P26358). The experiment can be described thus: DNMT1 methyltransferase inhibitors, confirmation, biochemical, fluorescent molecular beacon (AID 602386). It counts as functional.
For the next experiment, the target named is T1, Caspase-3 (Homo sapiens, UniProt P42574).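 Note: Dose-response selectivity test against caspase-3 for candidate inhibitors of sentrin-specific proteases (SENPs).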
T1 sequence (P42574 whole entry): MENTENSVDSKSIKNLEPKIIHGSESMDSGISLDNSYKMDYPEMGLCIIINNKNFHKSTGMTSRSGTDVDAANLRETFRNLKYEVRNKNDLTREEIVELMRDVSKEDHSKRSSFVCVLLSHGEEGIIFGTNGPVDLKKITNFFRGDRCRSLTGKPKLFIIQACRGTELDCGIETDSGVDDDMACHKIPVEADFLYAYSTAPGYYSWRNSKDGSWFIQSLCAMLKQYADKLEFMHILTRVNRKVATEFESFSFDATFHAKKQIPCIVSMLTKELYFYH
The format is functional.

Experiment [20] concerns the target T2, Sentrin-specific protease 7 (Homo sapiens, UniProt Q9BQF6).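 Note: Luminescence-based dose-response confirmation of ultra-high-throughput screening hits, measuring inhibition of SENP7.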
T2 sequence (Q9BQF6 whole entry): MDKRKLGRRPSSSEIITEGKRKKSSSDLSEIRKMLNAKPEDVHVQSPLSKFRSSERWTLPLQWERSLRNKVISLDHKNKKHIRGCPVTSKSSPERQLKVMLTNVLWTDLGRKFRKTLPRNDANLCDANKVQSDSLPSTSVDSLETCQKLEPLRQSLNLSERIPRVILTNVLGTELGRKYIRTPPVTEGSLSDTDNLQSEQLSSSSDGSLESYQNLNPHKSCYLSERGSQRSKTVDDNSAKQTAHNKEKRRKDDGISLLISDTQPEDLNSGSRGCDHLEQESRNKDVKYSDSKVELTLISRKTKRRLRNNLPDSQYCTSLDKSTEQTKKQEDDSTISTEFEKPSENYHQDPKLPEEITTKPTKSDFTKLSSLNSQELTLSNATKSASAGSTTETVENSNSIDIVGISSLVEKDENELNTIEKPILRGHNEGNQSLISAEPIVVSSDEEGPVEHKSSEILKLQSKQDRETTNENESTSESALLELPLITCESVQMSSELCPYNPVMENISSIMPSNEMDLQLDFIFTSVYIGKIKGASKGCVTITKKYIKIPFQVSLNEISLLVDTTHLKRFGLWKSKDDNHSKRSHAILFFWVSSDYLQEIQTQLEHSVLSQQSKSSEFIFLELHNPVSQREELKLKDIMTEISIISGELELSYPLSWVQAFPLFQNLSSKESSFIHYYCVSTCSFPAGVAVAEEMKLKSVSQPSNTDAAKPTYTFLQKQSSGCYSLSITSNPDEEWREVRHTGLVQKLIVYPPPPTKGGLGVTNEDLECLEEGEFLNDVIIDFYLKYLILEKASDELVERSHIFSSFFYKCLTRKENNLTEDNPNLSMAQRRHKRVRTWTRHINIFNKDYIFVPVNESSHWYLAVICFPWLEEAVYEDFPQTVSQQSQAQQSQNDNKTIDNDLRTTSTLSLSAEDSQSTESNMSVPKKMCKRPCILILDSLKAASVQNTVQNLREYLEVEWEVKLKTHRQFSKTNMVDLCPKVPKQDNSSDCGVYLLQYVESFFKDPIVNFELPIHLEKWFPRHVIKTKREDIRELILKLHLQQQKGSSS
It counts as functional.

Active and inactive are the calls of the source.
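Throughout, for EC50: rise in luciferase luminescence after 24 h compound exposure marks nonselective activation.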

Sequence of Misshapen-like kinase 1 (Q8N4C8 whole entry): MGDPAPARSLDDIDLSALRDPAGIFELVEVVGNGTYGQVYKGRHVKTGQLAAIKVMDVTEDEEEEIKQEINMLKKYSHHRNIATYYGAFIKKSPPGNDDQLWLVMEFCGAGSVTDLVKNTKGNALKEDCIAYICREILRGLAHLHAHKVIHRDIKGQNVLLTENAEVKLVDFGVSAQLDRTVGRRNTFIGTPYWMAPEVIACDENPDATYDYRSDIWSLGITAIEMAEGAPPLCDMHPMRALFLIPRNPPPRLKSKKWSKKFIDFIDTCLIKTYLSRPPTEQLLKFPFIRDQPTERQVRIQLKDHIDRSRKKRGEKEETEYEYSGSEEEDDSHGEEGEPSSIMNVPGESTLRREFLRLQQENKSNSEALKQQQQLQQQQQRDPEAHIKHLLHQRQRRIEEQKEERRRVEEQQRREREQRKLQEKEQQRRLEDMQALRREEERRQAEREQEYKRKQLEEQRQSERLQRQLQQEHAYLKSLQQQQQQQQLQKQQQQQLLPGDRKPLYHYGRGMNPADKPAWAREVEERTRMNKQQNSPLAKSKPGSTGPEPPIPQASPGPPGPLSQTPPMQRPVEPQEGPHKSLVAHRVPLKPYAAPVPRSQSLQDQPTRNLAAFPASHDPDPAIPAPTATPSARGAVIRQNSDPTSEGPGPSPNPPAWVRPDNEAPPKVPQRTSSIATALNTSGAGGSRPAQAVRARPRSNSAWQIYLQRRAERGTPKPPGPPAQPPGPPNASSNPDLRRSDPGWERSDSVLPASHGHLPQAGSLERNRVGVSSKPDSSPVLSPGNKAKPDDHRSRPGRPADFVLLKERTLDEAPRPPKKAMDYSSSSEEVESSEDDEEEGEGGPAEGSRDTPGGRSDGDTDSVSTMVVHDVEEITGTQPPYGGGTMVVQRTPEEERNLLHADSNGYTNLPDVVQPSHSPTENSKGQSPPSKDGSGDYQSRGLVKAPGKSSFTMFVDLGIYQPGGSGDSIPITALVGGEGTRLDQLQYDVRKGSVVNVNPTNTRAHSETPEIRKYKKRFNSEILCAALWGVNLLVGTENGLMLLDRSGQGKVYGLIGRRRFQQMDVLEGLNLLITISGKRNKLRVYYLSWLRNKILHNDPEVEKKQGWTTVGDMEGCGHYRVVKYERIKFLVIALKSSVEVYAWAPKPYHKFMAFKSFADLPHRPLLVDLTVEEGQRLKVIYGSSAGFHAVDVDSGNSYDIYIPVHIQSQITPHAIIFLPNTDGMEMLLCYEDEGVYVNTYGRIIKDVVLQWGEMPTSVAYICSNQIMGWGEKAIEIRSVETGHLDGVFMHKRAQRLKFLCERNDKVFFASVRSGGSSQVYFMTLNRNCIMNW
Sequence of Macrophage colony-stimulating factor 1 receptor (P07333 whole entry): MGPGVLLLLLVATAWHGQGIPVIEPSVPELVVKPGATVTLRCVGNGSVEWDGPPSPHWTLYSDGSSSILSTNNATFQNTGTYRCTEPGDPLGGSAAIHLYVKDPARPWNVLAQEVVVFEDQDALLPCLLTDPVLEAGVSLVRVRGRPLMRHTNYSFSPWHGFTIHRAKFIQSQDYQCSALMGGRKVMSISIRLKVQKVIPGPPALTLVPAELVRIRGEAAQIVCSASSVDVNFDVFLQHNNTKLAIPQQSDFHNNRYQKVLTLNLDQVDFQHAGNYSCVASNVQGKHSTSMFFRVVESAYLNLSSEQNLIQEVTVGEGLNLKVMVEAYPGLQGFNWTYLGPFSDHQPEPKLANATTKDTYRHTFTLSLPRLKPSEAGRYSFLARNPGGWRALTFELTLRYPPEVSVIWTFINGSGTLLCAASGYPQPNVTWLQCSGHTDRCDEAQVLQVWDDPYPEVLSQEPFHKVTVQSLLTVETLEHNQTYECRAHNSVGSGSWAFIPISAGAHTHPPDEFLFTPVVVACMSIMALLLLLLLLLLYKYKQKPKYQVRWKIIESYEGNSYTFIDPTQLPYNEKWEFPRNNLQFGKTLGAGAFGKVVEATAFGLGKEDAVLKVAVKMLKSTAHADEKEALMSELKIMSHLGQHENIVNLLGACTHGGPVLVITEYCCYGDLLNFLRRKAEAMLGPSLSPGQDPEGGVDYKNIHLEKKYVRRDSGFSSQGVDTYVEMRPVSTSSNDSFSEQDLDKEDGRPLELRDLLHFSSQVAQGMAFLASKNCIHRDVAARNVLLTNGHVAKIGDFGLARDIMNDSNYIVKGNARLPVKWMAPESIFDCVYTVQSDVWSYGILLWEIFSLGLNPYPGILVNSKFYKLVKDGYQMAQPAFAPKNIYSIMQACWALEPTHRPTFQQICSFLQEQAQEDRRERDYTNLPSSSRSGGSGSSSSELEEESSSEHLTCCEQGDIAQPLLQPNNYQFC
Sequence of 5'-AMP-activated protein kinase catalytic subunit alpha-1 (Q13131 whole entry): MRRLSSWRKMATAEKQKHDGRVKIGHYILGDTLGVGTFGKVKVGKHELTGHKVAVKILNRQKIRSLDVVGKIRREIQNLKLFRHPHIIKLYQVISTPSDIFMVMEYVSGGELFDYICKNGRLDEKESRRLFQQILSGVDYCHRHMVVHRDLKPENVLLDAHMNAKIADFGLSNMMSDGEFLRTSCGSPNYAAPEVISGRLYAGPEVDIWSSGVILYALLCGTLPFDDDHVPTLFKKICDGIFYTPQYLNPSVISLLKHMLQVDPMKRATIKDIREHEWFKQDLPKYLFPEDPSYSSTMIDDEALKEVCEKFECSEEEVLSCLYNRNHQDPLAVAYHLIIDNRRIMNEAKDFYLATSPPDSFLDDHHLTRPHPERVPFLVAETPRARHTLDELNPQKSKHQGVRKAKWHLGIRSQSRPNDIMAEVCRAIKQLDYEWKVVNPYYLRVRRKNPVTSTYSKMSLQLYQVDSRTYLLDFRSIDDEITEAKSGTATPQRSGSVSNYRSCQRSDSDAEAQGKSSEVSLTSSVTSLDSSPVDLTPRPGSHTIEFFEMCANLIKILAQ
Sequence of Mitogen-activated protein kinase 8 (P45983 whole entry): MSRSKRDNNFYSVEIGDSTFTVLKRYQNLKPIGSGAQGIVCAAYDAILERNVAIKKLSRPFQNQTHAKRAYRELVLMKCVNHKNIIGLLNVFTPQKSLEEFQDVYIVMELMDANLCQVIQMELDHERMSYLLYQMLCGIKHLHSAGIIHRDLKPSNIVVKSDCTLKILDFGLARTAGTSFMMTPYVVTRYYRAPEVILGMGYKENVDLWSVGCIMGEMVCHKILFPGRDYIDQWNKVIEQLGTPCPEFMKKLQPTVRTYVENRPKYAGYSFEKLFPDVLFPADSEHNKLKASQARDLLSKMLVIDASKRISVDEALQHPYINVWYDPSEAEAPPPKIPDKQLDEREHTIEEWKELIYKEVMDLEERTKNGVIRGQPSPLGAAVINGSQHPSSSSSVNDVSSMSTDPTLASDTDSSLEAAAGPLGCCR
Sequence of Fibroblast growth factor receptor 3 (P22607 whole entry): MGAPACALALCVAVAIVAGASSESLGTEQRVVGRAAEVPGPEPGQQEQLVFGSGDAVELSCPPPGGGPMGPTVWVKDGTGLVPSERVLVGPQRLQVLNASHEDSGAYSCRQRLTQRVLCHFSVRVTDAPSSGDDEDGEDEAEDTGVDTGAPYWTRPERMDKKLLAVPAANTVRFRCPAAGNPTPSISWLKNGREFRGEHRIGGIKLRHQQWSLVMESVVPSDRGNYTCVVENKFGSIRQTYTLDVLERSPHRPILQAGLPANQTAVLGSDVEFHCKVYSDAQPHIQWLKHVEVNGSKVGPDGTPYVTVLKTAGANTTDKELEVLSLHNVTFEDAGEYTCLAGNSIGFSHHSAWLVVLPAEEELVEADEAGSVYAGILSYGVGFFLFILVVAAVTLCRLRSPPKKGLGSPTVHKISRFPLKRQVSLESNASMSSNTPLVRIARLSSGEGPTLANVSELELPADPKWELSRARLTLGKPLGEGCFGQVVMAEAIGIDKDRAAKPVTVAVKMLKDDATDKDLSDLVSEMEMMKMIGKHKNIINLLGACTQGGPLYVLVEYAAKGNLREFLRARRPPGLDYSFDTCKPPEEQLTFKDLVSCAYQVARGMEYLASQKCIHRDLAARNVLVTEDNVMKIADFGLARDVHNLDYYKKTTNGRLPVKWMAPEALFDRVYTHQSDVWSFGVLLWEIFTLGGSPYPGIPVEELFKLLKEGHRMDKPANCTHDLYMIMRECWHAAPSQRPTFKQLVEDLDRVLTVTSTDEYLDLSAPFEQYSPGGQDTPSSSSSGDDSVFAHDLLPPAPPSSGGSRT
Sequence of Dual specificity protein kinase CLK4 (Q9HAZ1 whole entry): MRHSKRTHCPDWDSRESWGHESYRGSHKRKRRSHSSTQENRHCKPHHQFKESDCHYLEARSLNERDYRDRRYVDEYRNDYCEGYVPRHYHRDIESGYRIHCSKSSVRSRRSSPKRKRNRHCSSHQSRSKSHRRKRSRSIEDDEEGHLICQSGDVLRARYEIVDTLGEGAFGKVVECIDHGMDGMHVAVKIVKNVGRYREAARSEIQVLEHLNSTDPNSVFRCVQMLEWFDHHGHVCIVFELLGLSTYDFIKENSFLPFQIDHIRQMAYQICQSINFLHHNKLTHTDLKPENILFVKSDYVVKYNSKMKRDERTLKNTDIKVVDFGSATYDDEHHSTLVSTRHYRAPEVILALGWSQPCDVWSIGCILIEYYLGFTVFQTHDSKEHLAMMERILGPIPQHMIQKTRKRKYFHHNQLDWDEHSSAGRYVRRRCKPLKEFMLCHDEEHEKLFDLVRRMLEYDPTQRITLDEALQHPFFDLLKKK
Sequence of Cytochrome P450 2C19 (P33261 whole entry): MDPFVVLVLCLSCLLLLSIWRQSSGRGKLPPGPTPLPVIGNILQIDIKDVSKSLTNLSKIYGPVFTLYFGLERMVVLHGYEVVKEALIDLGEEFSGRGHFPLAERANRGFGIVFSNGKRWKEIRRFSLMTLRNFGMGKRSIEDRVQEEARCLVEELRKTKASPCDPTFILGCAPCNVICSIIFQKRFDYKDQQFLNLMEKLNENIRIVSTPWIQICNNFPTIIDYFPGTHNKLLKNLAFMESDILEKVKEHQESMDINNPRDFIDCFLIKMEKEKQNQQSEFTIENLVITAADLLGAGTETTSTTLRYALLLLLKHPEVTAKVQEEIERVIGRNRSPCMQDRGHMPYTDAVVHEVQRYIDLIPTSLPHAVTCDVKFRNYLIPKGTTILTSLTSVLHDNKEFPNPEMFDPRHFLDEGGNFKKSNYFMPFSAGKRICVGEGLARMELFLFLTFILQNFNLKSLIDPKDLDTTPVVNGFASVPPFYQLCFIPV

One may read the Ki as the equilibrium dissociation constant of an inhibitor or competing ligand from its target. Regarding `Cc1cccc(NC(=O)Nc2ccc3c(c2)CCc2sc4ncnc(N)c4c2-3)c1`, the Ki is > 2 µM (inactive) in [1]; > 7.94 µM (inactive) in [2]; 0.02 µM (active) in experiment [3]; 0.398 µM (active) in experiment [4]; > 3.16 µM (inactive) in experiment [5]; 0.126 µM (active) in [6]. The Ki in experiment [7] was 3.16 µM (active); in experiment [8], > 2.51 µM (inactive); in [9], > 3.98 µM (inactive); in experiment [10] it was > 3.16 µM (inactive); in [11] it was > 7.94 µM (inactive); in [12], > 3.98 µM (inactive). For the same compound, the Ki in experiment [13] was 0.00631 µM (active); in experiment [14], 0.316 µM (active); in experiment [15], > 10 µM (inactive); at Misshapen-like kinase 1, > 7.94 µM (inactive); in experiment [16], > 10 µM (inactive).

The IC50 is the concentration that gives 50% inhibition. What is called EC50 is the concentration that produces a half-maximal response. Regarding `Cc1ccc(-n2sc3ccccc3c2=O)cc1`, the values for the IC50 (in experiment [17]; at Procathepsin L) were > 100 µM (inactive) and > 59.6 µM (not active), respectively. In addition, the EC50 in [18] was 51.5 µM (inactive).

By AC50 is commonly meant the midpoint of the concentration-response curve, whichever way the signal moves. As to `N/C(=N\N=C/c1ccc(-c2ccc(O)c(C(=O)O)c2)o1)N[N+](=O)[O-]`, the AC50 at Cytochrome P450 2C19 was 39.8 µM (inconclusive). Moreover, in experiment [19], the IC50 is 3.94 µM (active).

Turning to `CC(=O)N(/N=C1\Sc2ccccc2C1=O)c1ccccc1C`, the results for the IC50 (at Caspase-3; in experiment [20]) were 42.2 µM (active) and 3.79 µM (active), respectively.
